Measured values from patent US20240165281A1, “DUAL MODE RADIOTRACER AND THERAPEUTICS” (Technische Universität München, priority 2021, published 2024).

Legend:
[1] = Wängler et al. 2010; cited from earlier work
PSMA = target: T1, PSMA (Homo sapiens, UniProt Q04609); assay: PSMA affinity (IC50), competition with [125I]I-BA-KuE on LNCaP cells; type: binding; conditions: natLu complex, on ice 60 min, read-out: IC50
T1 construct: PSMA-positive LNCAP cells (300265; Cell Lines Service, Eppelheim, Germany); host or cells: LNCaP cells
Protocol: A mixture of trypsin and EDTA (0.05%, 0.02%) in PBS (Biochrom) was used in order to harvest cells. Cells were counted with a Neubauer hemocytometer (Paul Marienfeld, Lauda-Königshofen, Germany).
Affinity Determinations (IC50)
In the case of metal-complexed ligands, the crude reaction mixture was diluted analogously, without further purification. Cells were harvested 24±2 hours prior to the experiment and seeded in 24-well plates (1.5×10^5 cells in 1 mL/well). […] The media of both steps were combined in one fraction and represent the amount of free radioligand. Afterwards, the cells were lysed with 250 μL of 1 M aqueous NaOH for at least 10 min. After a washing step (250 μL of 1 M NaOH), both fractions, representing the amount of bound ligand, were united. Quantification of all collected fractions was accomplished in a γ-counter. PSMA-affinity determinations were carried out at least three times per ligand.

[2] = Octanol-water partition coefficient (log D7.4); type: physicochemical; conditions: PBS pH 7.4 / n-octanol, 177Lu-labelled
Protocol: Octanol-Water Partition Coefficient (log D7.4)
Approximately 1 MBq of the labelled tracer was dissolved in 1 mL of a 1:1 mixture (v/v) of PBS (pH 7.4) and n-octanol in a reaction vial (1.5 mL). After vigorous mixing of the suspension for 3 minutes at room temperature, the vial was centrifuged at 15000 g for 3 minutes (Biofuge 15, Heraus Sepatech, Osterode, Germany) and 100 μL aliquots of both layers were measured in a gamma counter. The experiment was repeated at least six times.

[3] = test system: LNCaP tumor-bearing male CB-17 SCID mice; assay: Biodistribution studies 24 h p.i.
Protocol: Approximately 3-7 MBq (0.1-0.2 nmol) of the radioactive-labelled PSMA inhibitors were injected into the tail vein of LNCaP tumor-bearing male CB-17 SCID mice and sacrificed after 24 h post injection. Selected organs were removed, weighted and measured in a γ-counter. Results are all decay corrected and given in % injected dose per gram of tissue (% iD/g). Tumor-to-organ ratios are calculated from animals' individual ratios and are given as mean±standard deviation.

[4] = Apparent molecular weight (MWapp)
LNCaP cells = assay: Internalization studies in LNCaP cells; type: cell-based; conditions: 37° C., 60 min, normalized to reference
Protocol: PSMA-positive LNCAP cells (300265; Cell Lines Service, Eppelheim, Germany) were cultivated in Dulbecco modified Eagle medium/Nutrition Mixture F-12 with Glutamax (1:1) (DMEM-F12, Biochrom, Berlin, Germany) supplemented with fetal bovine serum (10%, FBS Zellkultur, Berlin, Germany) and kept at 37° C. in a humidified CO2 atmosphere (5%). A mixture of trypsin and EDTA (0.05%, 0.02%) in PBS (Biochrom) was used in order to harvest cells. Cells were counted with a Neubauer hemocytometer (Paul Marienfeld, Lauda-Königshofen, Germany).
For internalization studies, LNCaP cells were harvested 24±2 hours before the experiment and seeded in poly-L-lysine coated 24-well plates (1.25×10^5 cells in 1 mL/well, Greiner Bio-One, Kremsmünster, Austria). After removal of the culture medium, the cells were washed once with 500 μL DMEM-F12 (5% BSA) and left to equilibrate for at least 15 min at 37° C. in […] DMEM-F12 (5% BSA). Each well was treated with either 25 μL of either DMEM-F12 (5% BSA, control) or 25 μL of a 100 μM PMPA (2-(Phosphonomethyl)-pentandioic acid, Tocris Bioscience, Bristol, UK) solution in PBS, for blockade. Next, 25 μL of the radioactive-labelled PSMA inhibitor (10.0 nM in DMEM-F12 (5% BSA)) was added and the cells were incubated at 37° C. for 60 min. The experiment was terminated by placing the 24-well plate on ice for 3 min and consecutive removal of the medium. Each well was carefully washed with 250 μL of ice-cold HBSS. Both fractions from the first steps, representing the amount of free radioligand, were combined. Removal of surface bound activity was accomplished by incubation of the cells with 250 μL of ice-cold PMPA (10 μM in PBS) solution for 5 min and rinsed again with another 250 μL of ice-cold PBS. The internalized activity was determined by incubation of the cells in 250 μL […] aqueous NaOH for at least 10 min. The obtained fractions were combined with those of the subsequent wash step with 250 μL 1 M aqueous NaOH. Each experiment (control and blockade) was performed in triplicate. Free, surface bound and internalized activity was quantified in a y-counter. All internalization studies were accompanied by external reference studies, using ([^125I]I-BA)KuE (c=0.2 nM), which were performed analogously. Data were corrected for non-specific binding and normalized to the specific-internalization observed for the radioiodinated reference compound.

[5] = target: T2, Human Serum Albumin (HSA) (Homo sapiens, UniProt P02768); assay: Human serum albumin (HSA) binding by high performance affinity chromatography (HPAC); type: in vitro ADME; conditions: Chiralpak HSA column
T2 construct: purchased Daicel H13H-2433
Protocol: Determination of Human Serum Albumin (HSA) Binding by High Performance Affinity Chromatography (HPAC)
HSA binding of the PSMA-addressing ligands was determined according to a previously published procedure via HPLC (Valko, K.; Nunhuck, S.; Bevan, C.; Abraham, M. H.; Reynolds, D. P. Journal of pharmaceutical sciences 2003, 92, 2236-2248). A Chiralpak HSA column (50×3 mm, 5 μm, H13H-2433, Daicel, Tokyo, Japan) was used at a constant flow rate of 0.5 mL/min at rt. Mobile phase A was a freshly prepared 50 mM aqueous solution of NH4OAc (pH 6.9) and mobile phase B was isopropanol (HPLC grade, VWR). The applied gradient for all experiments was 100% A (0 to 3 min), followed by 80% A (3 to 40 min). Prior to the experiment, the column was calibrated using nine reference substances with a HSA binding, known from literature, in the range of 13 to 99% (Valko, K.; Nunhuck, S.; Bevan, C.; Abraham, M. H.; Reynolds, D. P. Journal of pharmaceutical sciences 2003, 92, 2236-2248; Yamazaki, K.; Kanaoka, M. Journal of Pharmaceutical sciences 2004, 93, 1480-1494). All substances, including the examined PSMA ligands, were dissolved in a 1:1 mixture (v/v) of isopropanol and a 50 mM aqueous solution of NH4OAc (pH6.9) with a final concentration of 0.5 mg/mL. Non-linear regression was established with the OriginPro 2016G software (Northampton, United States) (FIG. 8).

T2 sequence (P02768 25-609): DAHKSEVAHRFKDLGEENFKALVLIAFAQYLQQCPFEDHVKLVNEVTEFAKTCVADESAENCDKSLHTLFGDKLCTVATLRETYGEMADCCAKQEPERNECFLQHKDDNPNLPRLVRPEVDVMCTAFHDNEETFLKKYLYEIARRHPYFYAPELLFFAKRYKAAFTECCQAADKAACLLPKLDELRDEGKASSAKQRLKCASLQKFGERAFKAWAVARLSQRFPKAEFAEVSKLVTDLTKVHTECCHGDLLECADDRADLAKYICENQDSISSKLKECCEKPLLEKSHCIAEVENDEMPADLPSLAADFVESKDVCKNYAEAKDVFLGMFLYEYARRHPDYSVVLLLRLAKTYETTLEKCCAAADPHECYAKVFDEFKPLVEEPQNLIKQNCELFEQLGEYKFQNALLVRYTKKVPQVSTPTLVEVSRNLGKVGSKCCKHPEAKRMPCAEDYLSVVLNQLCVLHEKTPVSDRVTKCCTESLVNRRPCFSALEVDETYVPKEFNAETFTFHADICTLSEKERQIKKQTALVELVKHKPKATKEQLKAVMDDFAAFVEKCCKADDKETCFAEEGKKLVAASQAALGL
T1 sequence (Q04609 whole entry): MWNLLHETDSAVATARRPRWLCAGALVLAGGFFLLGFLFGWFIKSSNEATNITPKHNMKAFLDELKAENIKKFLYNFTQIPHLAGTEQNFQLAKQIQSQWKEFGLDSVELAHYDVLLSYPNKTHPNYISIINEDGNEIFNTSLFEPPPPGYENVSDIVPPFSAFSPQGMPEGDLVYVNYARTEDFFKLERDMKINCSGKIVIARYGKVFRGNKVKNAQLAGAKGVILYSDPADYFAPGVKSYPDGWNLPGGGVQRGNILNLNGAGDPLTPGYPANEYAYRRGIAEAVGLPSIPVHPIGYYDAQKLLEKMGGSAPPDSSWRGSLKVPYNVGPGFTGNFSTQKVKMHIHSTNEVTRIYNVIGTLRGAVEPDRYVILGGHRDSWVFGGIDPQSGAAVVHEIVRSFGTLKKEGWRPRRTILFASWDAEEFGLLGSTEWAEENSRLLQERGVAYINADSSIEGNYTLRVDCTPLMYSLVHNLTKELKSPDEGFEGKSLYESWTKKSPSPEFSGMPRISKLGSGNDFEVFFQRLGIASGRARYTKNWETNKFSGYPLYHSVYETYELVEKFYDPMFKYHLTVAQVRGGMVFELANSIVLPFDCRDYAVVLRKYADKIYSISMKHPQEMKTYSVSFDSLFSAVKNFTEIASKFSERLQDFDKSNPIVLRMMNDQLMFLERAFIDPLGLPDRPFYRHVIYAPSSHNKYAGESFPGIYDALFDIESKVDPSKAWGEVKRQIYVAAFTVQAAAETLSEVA

## SIFA-Asn(AcNH-β-Glc)-PEG-Tyr^3 -octreotate
[1]
  log P(ow): 0.96

## SIFA-Asn(AcNH-β-Glc)-Tyr^3 -octreotate
[1]
  log P(ow): 1.23

## CC(C)(C)[Si](F)(c1ccc(C(=O)NC[C@@H](NC(=O)[C@@H](CCCNC(N)=O)NC(=O)CC[C@H](C(=O)O)N2CCN(CC(=O)O)CCN(CC(=O)O)CCN(CC(=O)O)CC2)C(=O)NCCCCCC(=O)NCCC[C@@H](NC(=O)CC[C@H](NC(=O)N[C@@H](CCC(=O)O)C(=O)O)C(=O)O)C(=O)O)cc1)C(C)(C)C [Compound 2C015]
PSMA
  IC50: 3.99 ± 0.74 nM
[2]
  logD7.4: −3.40 ± 0.10
[3]; Table 6
  In vivo biodistribution (24 h p.i.) blood: 0.0007 ± 0.0005 % iA/g
  In vivo biodistribution (24 h p.i.) kidney: 2.23 ± 1.29 % iA/g
  In vivo biodistribution (24 h p.i.) tumor: 8.98 ± 2.32 % iA/g
[3]; mean
  uptake in adrenals: 0.1013 % iD/g
  uptake in blood: 0.0007 % iD/g
  uptake in bone: 0.0223 % iD/g
  uptake in heart: 0.0237 % iD/g
  uptake in intestine: 0.1103 % iD/g
  uptake in kidney: 2.2339 % iD/g
  uptake in liver: 0.164 % iD/g
  uptake in lung: 0.0468 % iD/g
  uptake in muscle: 0.0062 % iD/g
  uptake in pancreas: 0.0212 % iD/g
  uptake in parotid gl.: 0.0674 % iD/g
  uptake in spleen: 0.2671 % iD/g
  uptake in stomach: 0.036 % iD/g
  uptake in submand. gl.: 0.0389 % iD/g
  uptake in tumor: 8.9821 % iD/g
[4]
  MWapp: 18.9 kDa
LNCaP cells
  Internalization: 226 ± 10 % IBA
[5]
  HSA (HPAC): 95.0%
